This is an account of results in patent US7070803B2 (Nycomed Austria GmbH, priority 2000, dated 2006).

For data set [1] the following is noted: doses used in clinical practise (10 mg t.i.d.); cited from earlier work.
The nature of data set [2]: Absorption of midodrine from the colon (plasma levels). To be noted: human, in vivo, tmax of desglymidodrine after colon absorption, midodrine absorbed in the colon.
The nature of data set [3]: Plasma pharmacokinetics after oral intake of midodrine (plain tablet / solution). To be noted: human, in vivo. An excerpt: Considering the chronic nature of the diseases in question, which requires a long-term treatment as well as the correlation between plasma levels and the incidence and severity of adverse events, the development of a controlled release form is highly desired.

`COc1ccc(OC)c(C(O)CNC(=O)CN)c1` (stereo not drawn) [midodrine, 2-amino-N-[2-(2,5-dimethoxyphenyl)-2-hydroxyethyl]-acetamide]: in data set [1], the “effect on standing blood pressure” value was “significantly increase standing blood pressure”.
Turning to `COc1ccc(OC)c(C(O)CN)c1` (stereo not drawn) [desglymidodrine, alpha-(aminomethyl)-2,5-dimethoxy-benzenemethanol], the Tmax in data set [2] was about 3 h; in data set [3] it was 1 h.
